{"source": "patent US20220087969A1", "about": "“METHOD FOR TREATING ASTHMA” (Olatec Therapeutics LLC, priority 2019, published 2022)", "key": {"[1]": {"system": "OVA-induced allergic airway inflammation", "experiment": "Leukocyte subpopulations in bronchoalveolar lavage fluid, OVA allergic asthma model, i.p. dapansutrile", "format": "in vivo, C57BL/6j mice", "settings": "Day 29", "excerpt": "A well-established mouse model of experimental allergic asthma (Sel 2008, Wegmann 2005, Wegmann 2007, Lunding 2015a) was used to evaluate dapansutrile as a therapeutic option in allergic bronchial asthma and to determine if dapansutrile would have an impact on airway inflammation and the development of airway hyperresponsiveness (AHR) Inflammation in this model is characterized by the infiltration of eosinophils as well as of TH2 cells and involves the subsequent development of AHR and mucus hyperproduction so that this model resembles the major pathophysiologic hallmarks of human bronchial asthma.\nC57BL/6j mice were sensitized to OVA (ovalbumin) by three intraperitoneal (i.p.) injections of 10 μg OVA adsorbed to 150 mg aluminum hydroxide on days 1, 14, and 21. This sensitization results in an adoptive immune response against OVA with OVA-specific TH2 cells and the production of OVA-specific antibodies of the subclasses IgE and IgG4.\nTo induce acute allergic airway inflammation, mice were exposed three times to an OVA aerosol (1% w/v in PBS) on days 26, 27, and 28.\nHealthy control animals (healthy group) were sham sensitized to PBS and subsequently challenged with PBS aerosol. Non-drug treated animals (asthmatic group) and drug-treated animals (treated group) were sensitized by […] and subsequently challenged with OVA aerosol. The treatment group were treated with dapansutrile at 60 mg/kg at days 25, 26, 27, and 28 by intraperitoneal (i.p). injection, whereas the healthy group and the asthmatic group were administered with saline by intraperitoneal injection on days 25, 26, 27, and 28.\nEight animals per group were used. All animals were sacrificed on day 29. The following readouts were measured according to Lunding, 2015b. • General infiltration of inflammatory cells into the broncheoalveolar lumen • Determination of the specific infiltration of eosinophils, neutrophils and lymphocytes by histologic differentiation of the bronchoalveolar lavage (BAL) cells. • Goblet cell hyperplasia by CAST system (Computer Assisted Stereological Toolbox), including making microscopic pictures of the airways. • Airway resistance in response to methacholine to determine the airway hyperresponsiveness.\nSpecifically, inflammatory cell subpopulations (eosinophils, macrophages, neutrophils, lymphocytes) infiltrating the bronchoalveolar lumen were quantified using cyto-spinned and quick-diff-stained cells from bronchoalveolar lavage fluids (BALF). Further, inflammatory cell infiltration was recorded from hematoxylin and eosin (HE)-stained lung/airway cross-sections. AHR was assessed by recording airway resistance during a methacholine (MCh) provocation test in mice mechanically ventilated by a Buxco FinePoint RC unit. Mucus hyperproduction was quantified in PAS (periodic acid-Schiff)-stained airway cross-sections undergoing systematic, uniform random sampling and subsequent stereologic analysis of mucus amount in the airways and mucus producing goblet cells in the airway mucosa.\nAllergic airway inflammation and mucus hyperproduction were assessed on Day 29, 24 hours after the final OVA aerosol challenge and dapansutrile dose."}, "[2]": {"system": "OVA-induced allergic airway inflammation", "experiment": "Leukocyte subpopulations in BALF, OVA model, oral dapansutrile in food", "format": "in vivo, mice", "experimental": "(§1) The experimental protocols of the mouse model were the same as those described in Example 1, except dapansutrile was administered orally by food. The already-sensitized mice were fed ad libidum with food pellets containing 7.5 g/kg dapansutrile starting on day 22 for one week; the first aerosol challenge was on day 26. Mice typically consume about 4 g of food per day, resulting in an approximate daily dose of 0 mg/kg/day for control groups and 1,000 mg/kg/day for the treatment groups. […] OVA-sensitized, OVA-challenged asthmatic controls (asthmatic) were fed with control food pellets without dapansutrile."}, "[3]": {"system": "OVA-induced allergic airway inflammation", "experiment": "Airway resistance in response to MCh, OVA model, oral dapansutrile in food", "format": "in vivo, mice", "settings": "100 mg/mL MCh", "experimental": "as §1, with “dapansutrile. […] Baseline airway resistance of healthy animals was 2.58 cm H2O·s/mL at 100 mg/mL MCh.” for “dapansutrile.”"}, "[4]": {"system": "OVA-induced allergic airway inflammation", "experiment": "Goblet cells covering airway mucosa (PAS sections, stereology), OVA model, i.p. dapansutrile", "format": "in vivo, C57BL/6j mice", "settings": "treated mice, 60 mg/kg i.p.; asthmatic 22.74%; p<0.01", "experimental": "C57BL/6j mice were sensitized to OVA (ovalbumin) by three intraperitoneal (i.p.) injections of 10 μg OVA adsorbed to 150 mg aluminum hydroxide on days 1, 14, and 21. This sensitization results in an adoptive immune response against OVA with OVA-specific TH2 cells and the production of OVA-specific antibodies of the subclasses IgE and […]. To induce acute allergic airway inflammation, mice were exposed three times to an OVA aerosol (1% w/v in PBS) on days 26, 27, and 28. Healthy control animals (healthy group) were sham sensitized to PBS and subsequently challenged with PBS aerosol. […] The following readouts were measured according to Lunding, 2015b. • General infiltration of inflammatory cells into the broncheoalveolar lumen • Determination of the specific infiltration of eosinophils, neutrophils and lymphocytes by histologic differentiation of the bronchoalveolar lavage (BAL) cells. • Goblet cell hyperplasia by CAST system (Computer Assisted Stereological Toolbox), including making microscopic pictures of the airways. • Airway resistance in response to methacholine to determine the airway hyperresponsiveness. Specifically, inflammatory cell subpopulations (eosinophils, macrophages, neutrophils, lymphocytes) infiltrating the bronchoalveolar lumen were quantified using cyto-spinned and quick-diff-stained cells from bronchoalveolar lavage fluids (BALF). […]"}, "[5]": {"settings": "oral, 7.5 g/kg in food, vs asthmatic mice, p<0.05"}}, "data": [{"smiles": "CS(=O)(=O)CCC#N", "note": "[dapansutrile, 3-methanesulfonylpropionitrile]", "values": [{"measurement": "reduction in lymphocytes in BALF", "setting": "[1]; 60 mg/kg i.p. days 25-28, vs asthmatic mice", "result": 32, "unit": "%"}, {"measurement": "reduction in eosinophils in BALF", "setting": "[1]; 60 mg/kg i.p. days 25-28, vs asthmatic mice, p<0.0001", "result": "approximately 60%"}, {"measurement": "reduction in neutrophils in BALF", "setting": "[1]; 60 mg/kg i.p. days 25-28, vs asthmatic mice, p<0.01", "result": 70, "unit": "%"}, {"measurement": "macrophage numbers in BALF", "setting": "[1]; 60 mg/kg i.p., vs asthmatic mice", "result": "no significant reduction"}, {"measurement": "eosinophils in BALF", "setting": "[1]; treated mice, 60 mg/kg i.p. days 25-28, asthmatic 21.96×10^4", "result": "7.30×10^4 cells/ml"}, {"measurement": "lymphocytes in BALF", "setting": "[1]; treated mice, 60 mg/kg i.p., asthmatic 0.80×10^4", "result": "0.55×10^4 cells/ml"}, {"measurement": "neutrophils in BALF", "setting": "[1]; treated mice, 60 mg/kg i.p., asthmatic 2.41×10^4", "result": "0.70×10^4 cells/ml"}, {"measurement": "reduction in eosinophils in BALF", "setting": "[2]; oral, 7.5 g/kg in food from day 22 for one week, vs asthmatic mice, p<0.0001", "result": "~75", "unit": "%"}, {"measurement": "macrophage numbers in BALF", "setting": "[2]; oral, 7.5 g/kg in food, vs asthmatic mice", "result": "no significant reduction"}, {"measurement": "reduction in lymphocytes in BALF", "setting": "[2]; [5]", "result": "~75", "unit": "%"}, {"measurement": "reduction in neutrophils in BALF", "setting": "[2]; [5]", "result": "~75", "unit": "%"}, {"measurement": "lymphocytes in BALF", "setting": "[2]; treated mice, oral 7.5 g/kg in food, asthmatic 1.00×10^4", "result": "0.26×10^4 cells/ml"}, {"measurement": "neutrophils in BALF", "setting": "[2]; treated mice, oral 7.5 g/kg in food, asthmatic 1.74×10^4", "result": "0.43×10^4 cells/ml"}, {"measurement": "eosinophils in BALF", "setting": "[2]; treated mice, oral 7.5 g/kg in food, asthmatic 15.93×10^4", "result": "3.77×10^4 cells/ml"}, {"measurement": "reduction of airway resistance in response to MCh", "setting": "[3]; oral, 7.5 g/kg in food, vs sham-treated asthmatic controls, p<0.01", "result": "approximately 60%"}, {"measurement": "airway resistance in response to MCh", "setting": "[3]; treated mice, oral 7.5 g/kg in food, asthmatic 4.57, healthy 2.58", "result": 3.38, "unit": "cm H2O·s/mL"}, {"measurement": "area of epithelial basal membrane covered by goblet cells", "setting": "[4]", "result": 17.67, "unit": "%"}]}]}
